# Ends that are not written are not given here. * marks the point of attachment. Octanoyl = CCCCCCCC(=O)*
# Key:
# [1] = Plasma glucose level after 7 day treatment in 129Sv mice; format: in vivo; settings: 129 male mice, 7.2 mg/kg peptide, end of study
# Text: FIG. 3A is a bar graph showing percentage of plasma glucose reduction after 7 day treatment with acylated ghrelin splice variant peptides (acylated SEQ ID NO:2, SEQ ID NO:3 and SEQ ID NO:4) or ghrelin in 129Sv mice. The percent reduction is 3.2%; 2% and 4.8% respectively while treatment with ghrelin increased plasma glucose level by 1.3%.
# FIG. 3B is a bar graph showing plasma glucose levels after 7 day treatment with acylated ghrelin splice variant peptides (acylated SEQ ID NO:2, SEQ ID NO:3 and SEQ ID NO:4) or ghrelin. 129 male mice were treated for seven days with 7.2 mg/kg peptide. Plasma glucose levels were measured at the end of the study.
# [2] = Serum cholesterol and lipid levels (cholesterol, triglycerides, LDL, HDL) after subcutaneous administration in 129Sv mice; format: in vivo; settings: 129Sv male mice, subcutaneous once daily, n=10 per group; for Reduced levels of cholesterol (serum cholesterol concentration): compared to vehicle-administered controls
# Text: FIG. 1A is a bar graph showing serum cholesterol concentration after subcutaneous administration of acylated ghrelin splice variant (acylated SEQ ID NO:2) or un-acylated ghrelin splice variant (SEQ ID NO:2) compared to SEQ ID NO:3 and vehicle-administered controls in 129Sv mice. Reduced levels of cholesterol in the acylated ghrelin splice variant (acylated SEQ ID NO:2) and un-acylated ghrelin splice variant (SEQ ID NO:2) treated groups were observed (5% & 6%, respectively).
# (§1) Acylated ghrelin splice variant (20 μg; 29 amino acids in length (SEQ ID NO:2)) or the Vehicle (1.6% mannitol) was administered once daily for 14 successive days, via the subcutaneous (SC) route, to groups comprising n=10 129Sv male mice. No mortality occurred in any of the animals throughout the entire study period. […] All animals were subjected to terminal bleeding, under CO2 anesthesia, immediately prior to euthanasia. Terminal blood collection was performed serially as per animal number, and not as per group. • Hematology: Blood samples (at least 100 μl) were collected into pre-labeled EDTA coated tubes. The tubes were pre-labeled and contain the following information:
# Study number, group number, animal number and date. The samples were kept until delivery and analysis at 2-8 ° C. Hematology parameters that were tested using Sysmex KX-21™are: WBC, RBC, HGB, HCT, MCV, MCH, MCHC, Platelets. Differential count was preformed manually. • Biochemistry: Blood for biochemistry analysis was collected into non-coated pre-labeled tubes. The tubes were pre-labeled and contained the following information: Study number, group number, animal number and date. Following clotting, the blood from each animal was centrifuged, and the serum was collected into two pre-labeled tubes and submitted for analysis as follows: Serum, 250 μl, was kept at 2-8° C. until analysis. The samples were subjected to the following listed tests using Hitachi 917 system: Creatinine, Total bilirubin, Glucose, Triglycerides, Cholesterol, HDL, LDL, Total protein, Globulin, Albumin, Urea, Potassium, Phosphorus, Calcium, Sodium, Chloride, sGOT, SGPT, ALP. • Urinalysis: Urine was collected into pre-labeled tubes (as above) from all animals (where possible) prior to and/or after euthanasia. For all surviving animals, urine collection was performed serially as per animal number, and not as per group. An attempt was made to attain the maximal amount as possible to perform the tests listed below. Urinalysis is performed using a commercial test stick (Bayer, Multistix® 10SG) applied to urine sample and evaluating the following parameters: glucose, ketone, pH value, leukocytes, blood, density, nitrite, bilirubin, urobilinogen and protein. • Necropsy Procedures and Macroscopic Examination: All animals were subjected to a fully detailed necropsy. For all surviving animals, necropsy was performed serially as per animal number, and not as per group, immediately following the scheduled terminal bleeding. At necropsy, a thorough examination is made and any abnormality or gross pathological changes in tissues and/or organs are observed and recorded. • Organ/Tissue Collection: The organs and tissues listed (Brain, Liver, Kidney, Stomach, Pancreas, Lungs, Spleen, Heart, Epididymal WAT, Retroperitoneal WAT, Interscapular BAT) were excised and weighed wet as soon as possible after excision and removal of the attached fat and other connective tissues. All organs from one animal were collected into one container, pre-labeled with the following information: Study number, group number, animal number and date. • Results: Reduced levels of cholesterol in the acylated ghrelin splice variant and un-acylated ghrelin splice variant treated groups were observed (5% & 6%, respectively; See FIG. 1A). Reduced levels of HDL in the acylated ghrelin splice variant and un-acylated ghrelin splice variant treated groups (5% & 6%, respectively; see FIG. 1B).
# [3] = Cumulative body weight gain after once-daily subcutaneous treatment in 129Sv mice; format: in vivo; settings: male wild-type 129Sv mice, once daily for seven days, 72 mg/kg subcutaneously, n=8 per group
# Method: FIG. 2 is a line graph showing cumulative body weight gain of un-acylated ghrelin splice variant-treated (SEQ ID NO:2) 129Sv mice compared to vehicle-treated controls. Un-acylated ghrelin splice variant reduces body weight gain in male wild-type mice (n=8 per group). In mice treated once daily for seven days with un-acylated ghrelin splice variant (72 mg/kg, subcutaneously), cumulative weight gain of the SEQ ID NO:2 group was 25% times less than the vehicle-injected control animals.
# [4] = Mortality and clinical signs during subcutaneous administration study; format: in vivo, 129Sv mice; settings: 20 μg once daily for 14 successive days, 129Sv male mice, n=10
# Method: as §1, with “information: […]” for “information:”
substance,measurement,setting,value
"GSS (CO-C7H15) FLSPEHQRVQVRPPHKAPH (GSS(Octanoyl)FLSPEHQRVQVRPPHKAPH; listed as Homo sapiens) [SEQ ID NO:3, 22 amino acid human ghrelin splice variant, acylated]",Percentage of plasma glucose reduction,[1],2%
same,Increased levels of triglycerides,[2]; compared to vehicle,15%
"GSSFLSPEHQRVQVRPPHKAPHVV (also: acylated (site not given here); listed as Homo sapiens) [SEQ ID NO:4, acylated 24 amino acid human ghrelin splice variant]",Percentage of plasma glucose reduction,[1],4.8%
"GSSFLSPEHQRVQVRPPHKAPHVVPALPL (listed as Homo sapiens) [un-acylated ghrelin splice variant, 29 amino acid human ghrelin splice variant, un-acylated]",Cumulative weight gain less than the vehicle-injected control animals,[3],25%
same,Level of triglycerides (in words),[2]; compared to vehicle,remained unchanged
same,Reduced levels of HDL,[2]; compared to vehicle,6%
same,Reduced levels of cholesterol (serum cholesterol concentration),[2],6%
"GSSFLSPEHQRVQVRPPHKAPHVVPALPL (not fully specified; listed as Homo sapiens) [acylated SEQ ID NO:2, 29 amino acid human ghrelin splice variant, acylated]",Clinical signs,[4],No clinical signs
same,Mortality,[4],No mortality
same,Percentage of plasma glucose reduction,[1],3.2%
same,Increased levels of triglycerides,[2]; compared to vehicle,9%
same,LDL levels (in words),[2]; compared to vehicle,remained unchanged
same,Reduced levels of HDL,"[2]; compared to vehicle, listed as acylated ghrelin splice variant",5%
same,Reduced levels of cholesterol (serum cholesterol concentration),[2]; listed as acylated ghrelin splice variant,5%
"ghrelin: polypeptide of GenBank NP_057446; mature 28 amino acid peptide bearing n-octanoyl on the third serine (GSS(Octanoyl)FLSPEHQRVQQRKESKKPPAKLQPR; UniProt Q9UBU3 24-51, looked up) [reference compound]",Increase of plasma glucose level,[1],1.3%
